From patent US6680336B2, “Cyclic AMP-specific phosphodiesterase inhibitors” (ICOS Corporation, priority 1999, dated 2004)

What was measured:
[1] = tested on: TNFα secretion in human peripheral blood lymphocytes; assay: Lipopolysaccharide-stimulated TNFα release from human peripheral blood lymphocytes; assay type: cell-based; details: Lymphocyte; LPS-stimulated TNFα release from human PBL
Protocol: The compounds of structural formula (II) also were tested for an ability to reduce TNFα secretion in human peripheral blood lymphocytes. The ability to reduce TNFα secretion is related to the EC50 values i.e., the effective concentration pf the compound capable of inhibiting 50% of the total TNFα).
To assess the ability of a compound to reduce TNFα secretion in human peripheral blood lymphocytes (PBL), the following tests were performed.
Heparinized blood (approximately 30 mL) drawn from human volunteers was mixed 1:1 with Dulbecco's modified phosphate-buffered saline. This mixture was mixed 1:1 with HISTOPAQUE® and centrifuged at 1,500 rpm at room temperature without braking in the swinging bucket of a Beckman model TJ6 centrifuge. Erythrocytes were centrifuged to the bottom of the tubes, and serum remained at the surface of the tubes. A layer containing lymphocytes sedimented between the serum and HISTOPAQUE® layers, and was removed by aspiration to a fresh tube. The cells were quantified and adjusted to […] and a 100 μL aliquot is placed into the wells of a 96 well plate. Test compounds and RPMI media (Gibco/BRL Life Sciences) are added to each of the wells 15 minutes prior to addition of bacterial LPS ([…]). The mixture was allowed to incubate for 20 hours at 37° C. in a humidified chamber. The cells then were separated by centrifuging at 800 rpm for 5 minutes at room temperature. An aliquot of 180 μL of supernatant was transferred to a new plate for determination of TNFα concentration. TNFα protein in the cell supernatant fluids was measured using a commercially available enzyme-linked immunosorbent assay (ELISA) (CYTOSCREEN® Immunoassay Kit from Biosource International).
The cell-based assay provided the following results for various pyrrolidine compounds of the present invention. The EC50 values (i.e., effective concentration of the compound capable of inhibiting 50% of the total TNFα) illustrate the ability of the present compounds to inhibit LPS-stimulated TNFα release from human PBL.

recombinant human PDE4 = target: T1, recombinant human PDE4; assay: PDE4 inhibition, charcoal separation [32P]cAMP phosphodiesterase assay; assay type: biochemical
T1 construct: PDE4 IC50; other: human recombinant PDE4
Protocol: The compounds of structural formula (II) were tested for an ability to inhibit PDE4. The ability of a compound to inhibit PDE4 activity is related to the IC50 value for the compound, i.e., the concentration of inhibitor required for 50% inhibition of enzyme activity. The IC50 value for compounds of structural formula (II) were determined using recombinant human PDE4.
Recombinant production of human PDE1B, PDE2, PDE4A, PDE4B, PDE4C, PDE4D, PDE5, and PDE7 was carried out similarly to that described in Example 7 of U.S. Pat. No. 5,702,936, incorporated herein by reference, except that the yeast transformation vector employed, which is derived from the basic ADH2 plasmid described in Price et al., Methods in Enzymology, 185, pp. 308-318 (1990), incorporated yeast ADH2 promoter and terminator sequences and the Saccharomyces cerevisiae host was the protease-deficient strain BJ2-54 deposited on Aug. 31, 1998 with the American Type Culture Collection, Manassas, Va., under accession number ATCC 74465. Transformed host cells were grown in 2×SC-leu medium, pH 6.2, with trace metals, and vitamins. After 24 hours, YEP medium-containing glycerol was added to a final concentration of 2×YET/3% glycerol. Approximately 24 hr later, cells were harvested, washed, and stored at −70° C.
Phosphodiesterase activity of the preparations was determined as follows. PDE assays utilizing a charcoal separation technique were performed essentially as described in Loughney et al. (1996). In this assay, PDE activity converts [32P]cAMP or [32P]cGMP to the corresponding [32P]5′-AMP or [32P]5′-GMP in proportion to the amount of PDE activity present. The [32P]5′-AMP or [32P]5′-GMP then was quantitatively converted to free [32P]phosphate and unlabeled adenosine or guanosine by the action of snake venom 5′-nucleotidase. […] The assay was performed at 30° C. in a 100 μL reaction mixture containing (final concentrations) 40 mM Tris HCl (pH 8.0), 1 μM ZnSO4, 5 mM MgCl2, and 0.1 mg/mL bovine serum albumin (BSA). Alternatively, in assays assessing PDE1-specific activity, incubation mixtures further incorporated the use of 0.1 mM CaCl2 and 10 μg/mL calmodulin. PDE enzyme was present in quantities that yield <30% total hydrolysis of substrate (linear assay conditions). The assay was initiated by addition of substrate (1 mM [32P]cAMP or cGMP), and the mixture was incubated for 12 minutes. Seventy-five (75) μg of Crotalus atrox venom then was added, and the incubation was continued for 3 minutes (15 minutes total). The reaction was stopped by addition of 200 μL of activated charcoal (25 mg/mL suspension in 0.1 M […], pH 4). After centrifugation (750×g for 3 minutes) to sediment the charcoal, a sample of the supernatant was taken for radioactivity determination in a scintillation counter and the PDE activity was calculated.
Inhibitor analyses were performed similarly to the method described in Loughney et al., J. Biol. Chem., 271, pp. 796-806 (1996), except both cGMP and cAMP were used, and substrate concentrations were kept below 32 nM, which is far below the Km of the tested PDEs.

SMILES	EC50 [1] [µM]	IC50 (recombinant human PDE4) [µM]
COC(=O)N1C[C@@H](c2ccc(OC)c(OC3CCCC3)c2)[C@](C)(CNCc2ccccc2)C1 [Example 1, Methyl (4S,3R)-4-(3-cyclopentyloxy-4-methoxyphenyl)-3-methyl-3-{[benzylamino]methyl]}pyrrolidine carboxylate]	0.775	1.4
COC(=O)N1C[C@@H](c2ccc(OC)c(OC3CCCC3)c2)[C@](C)(CN)C1 [Example 2, Methyl (4S,3R)-3-(aminomethyl)-4-(3-cyclopentyloxy-4-methoxyphenyl)-3-methylpyrrolidinecarboxylate]	0.142	0.0285
COC(=O)N1CC(c2ccc(OC)c(OC3CCCC3)c2)[C@](C)(CNS(C)(=O)=O)C1 (stereo partly drawn) [Example 3]	–	3.18
COC(=O)N1C[C@@H](c2ccc(OC)c(OC3CCCC3)c2)[C@](C)(CNC(C)=O)C1 [Example 4, Methyl (4S,3R)-3-[(acetylamino)methyl]-4-(3-cyclopentyloxy-4-methoxyphenyl)-3-methylpyrrolidine-carboxylate]	–	3.09
COC(=O)N1C[C@@H](c2ccc(OC)c(OC3CCCC3)c2)[C@](C)(CNC(=O)c2ccccc2)C1 [Example 5, Methyl (4S,3R)-4-(3-cyclopentyloxy-4-methoxyphenyl)-3-methyl-3-[(phenylcarbonylamino)methyl]pyrrolidinecarboxylate]	–	2.51
COC(=O)N1CC(c2ccc(OC)c(OC3CCCC3)c2)[C@](C)(CNS(=O)(=O)c2ccccc2)C1 (stereo partly drawn) [Example 6]	0.73	0.507
COc1ccc([C@@H]2CN(Cc3ccccc3)C[C@@]2(C)C(C)N)cc1OC1CCCC1 (stereo partly drawn) [Example 8, 1-[(3S,4S)-4-(3-Cyclopentyloxy-4-methoxyphenyl)-3-methyl-1-benzylpyrrolidin-3-yl]ethylamine]	1.56	0.673
COc1ccc([C@@H]2CN(Cc3ccccc3)C[C@@]2(C)C(C)NC(=O)c2ccccc2)cc1OC1CCCC1 (stereo partly drawn) [Example 10, N-{1-[(3S,4S)-4-(3-Cyclopentyloxy-4-methoxyphenyl)-3-methyl-1-benzylpyrrolidin-3-yl]ethyl}benzamide]	–	2.95
COc1ccc([C@@H]2CN(Cc3ccccc3)C[C@@]2(C)C(C)NC(=O)c2ccccc2)cc1OC1CCCC1 (stereo partly drawn) [Example 11, N-{1-[(3S,4S)-4-(3-Cyclopentyloxy-4-methoxyphenyl)-3-methyl-1-benzylpyrrolidin-3-yl]ethyl}benzamide]	–	27.1
COc1ccc([C@@H]2CN(Cc3ccccc3)C[C@@]2(C)C(C)NC(C)=O)cc1OC1CCCC1 (stereo partly drawn) [Example 12, N-{1-[(3S,4S)-4-(3-Cyclopentyloxy-4-methoxyphenyl)-3-methyl-1-benzylpyrrolidin-3-yl]ethyl}acetamide]	–	14.7
COc1ccc([C@@H]2CN(Cc3ccccc3)C[C@@]2(C)C(C)NC(C)=O)cc1OC1CCCC1 (stereo partly drawn) [Example 13, N-{1-[(3S,4S)-4-(3-Cyclopentyloxy-4-methoxyphenyl)-3-methyl-1-benzylpyrrolidin-3-yl]ethyl}acetamide]	–	2.44
COC(=O)N1C[C@@H](c2ccc(OC)c(OC3CCCC3)c2)[C@](C)(C(C)NC(C)=O)C1 (stereo partly drawn) [Example 14, 3-(S)-(1-Acetylaminoethyl)-4-(S)-(3-cyclopentyloxy-4-methoxyphenyl)-3-methylpyrrolidine-1-carboxic Acid Methyl Ester]	0.598	–
COc1ccc([C@@H]2CN(Cc3ccccc3)C[C@@]2(C)C(C)NS(=O)(=O)c2ccccc2)cc1OC1CCCC1 (stereo partly drawn) [Example 15, {1-[(3S,4S)-4-(3-Cyclopentyloxy-4-methoxyphenyl)-3-methyl-1-benzylpyrrolidin-3-yl]ethyl}-(phenylsulfonyl)amine]	–	8.97
COc1ccc(C2CN(Cc3ccccc3)C[C@@]2(C)C(C)NS(=O)(=O)c2ccccc2)cc1OC1CCCC1 (stereo partly drawn) [Example 16, {1-[(3S,4S)-4-(3-cyclopentyloxy-4-methoxyphenyl)-3-methyl-1-benzylpyrrolidin-3-yl]ethyl}-(phenylsufonyl)amine]	–	9.08
COc1ccc([C@@H]2CN(Cc3ccccc3)C[C@@]2(C)C(C)NS(C)(=O)=O)cc1OC1CCCC1 (stereo partly drawn) [Example 17, {1-[(3S,4S)-4-(3-Cyclopentyloxy-4-methoxyphenyl)-3-methyl-1-benzylpyrrolidin-3-yl]ethyl}-(methylsulfonyl)amine]	–	8.66
COc1ccc([C@@H]2CN(Cc3ccccc3)C[C@@]2(C)C(C)NS(C)(=O)=O)cc1OC1CCCC1 (stereo partly drawn) [Example 18, {1-[(3S,4S)-4-(3-Cyclopentyloxy-4-methoxyphenyl)-3-methyl-1-benzylpyrrolidin-3-yl]ethyl}-(methylsulfonyl)amine]	–	7.39
COC(=O)N1C[C@@H](c2ccc(OC)c(OC3CCCC3)c2)[C@](C)(CNC(=O)OC(C)(C)C)C1 [Example 21]	–	2.2
COc1ccc(C2CN(Cc3ccccc3)C[C@]2(C)CN(C)C)cc1OC1CCCC1 (stereo partly drawn) [Example 22]	–	5.89
CNC[C@]1(C)CN(Cc2ccccc2)CC1c1ccc(OC)c(OC2CCCC2)c1 (stereo partly drawn) [Example 23]	–	7.55
COC(=O)N1C[C@@H](c2ccc(OC)c(OC3Cc4ccccc4C3)c2)[C@](C)(CN)C1 [Example 24]	0.0765	0.0229
COC(=O)N1C[C@@H](c2ccc(OC)c(OCC3CC3)c2)[C@](C)(CN)C1 [Example 25]	0.0855	0.053
COc1ccc([C@@H]2CN(C(=O)C(C)(C)O)C[C@@]2(C)CN)cc1OCC1CC1 [Example 26]	0.45	0.235
COc1ccc([C@@H]2CN(C(=O)CO)C[C@@]2(C)CN)cc1OCC1CC1 [Example 27]	0.816	0.479
CCNC[C@]1(C)CN(C(=O)OC)C[C@H]1c1ccc(OC)c(OC2Cc3ccccc3C2)c1 [Example 28]	1.39	0.591
